# Reference: patent US8889680B2, “Treatment or prevention of fungal infections with PDK1 inhibitors” (priority 2010, dated 2014)
# Experiments:
# [1] = test system: C. neoformans; test: Antifungal susceptibility (microdilution MIC), C. neoformans; assay type: cell-based, Cryptococcus neoformans
# Procedure: (§1) The antifungal activity of protein kinase inhibitors was determined using the Clinical and Laboratory Science Institute microdilution protocol M-27A2. Biofilm antifungal activity was determined using the protocol of Pierce et al. and is reported as MIC50S (Pierce et al., Nat. Protoc. 3:1494-1500 (2008)). Disk diffusion assays were performed as described previously (Roelants et al., Microbiology 150:3289-304 (2004)).
# (FIG. 3A). […] Since the echinocandin class of cell wall-targeted 1,3-β-glucan synthase inhibitors is not active against C. neoformans, this represents one of the few cell wall-targeted molecules with activity against this important pathogen.
# [2] = test system: eisosomes in S. cerevisiae cells; test: Eisosome pattern by fluorescence microscopy (Pil1-GFP); assay type: cell-based; conditions: KP-372-1 (1/2 MIC), within one hour of treatment, versus DMSO
# Procedure: Light and fluorescence microscopy was performed using a Nikon ES80 epi-fluorescence microscope equipped with a CoolSnap CCD camera. Images were collected using NIS-Elements Software and processed in PhotoShop. All images were collected with identical exposure settings and equally processed with respect to tone and contrast.
# The micrographs of the KP-372-1-treated cells closely match those previously reported (Luo et al., J. Biol. Chem. 283:10433-44 (2008)) and, consequently, support a model in which Pil1 phosphorylation is required for eisosome assembly/stabilization.
# [3] = test system: CWI pathway reporter Rlm1-lacZ; test: β-Galactosidase CWI pathway reporter assay (Rlm1-lacZ); assay type: cell-based; conditions: sub-inhibitory concentrations (1/2 MIC), S. cerevisiae
# Procedure: (§2) Bars indicate mean fold change in Miller units of β-galactosidase activity relative to logarithmic phase cells without calcofluor or PKI. Error bars indicate standard deviation of three independent trials performed in triplicate. […] The percentage of cells with PI uptake was determined by fluorescence.
# Logarithmic phase S. cerevisiae (BY4741) cells harboring the pRLM1-lacZ plasmid were transferred to a 96-well plate, and treated with Calcofluor white ([…])+/−protein kinase inhibitor at sub-inhibitory concentrations (1/2MIC). The cells were incubated at room temperature for 5 hours and processed for β-galactosidase activity using the ThermoScientific Yeast β-galactosidase kit according to the manufacturer's instructions (Pierce; Rockford, Ill.). β-galactosidase activity was determined by measuring OD420 using a SpectraMax Plate reader (Molecular Devices) and expressed as fold change in Miller units (nmole/mg/min) relative to untreated cells. Each experiment was performed in duplicate with three independent isolates.
# The novel, antifungal PKIs identified in the primary screen were evaluated for their ability to block CWI pathway signaling using a reporter construct that contains two copies of the consensus binding site for the CWI-pathway-regulated transcription factor Rlm1 fused to the β-galactosidase gene (Jung et al., Mol. Microbiol. 46:781-9 (2002)). […]
# [4] = test system: fluid-phase endocytosis in S. cerevisiae; test: Lucifer yellow (LY) endocytosis assay; assay type: cell-based; conditions: sub-lethal KP-372-1, 1 hour pre-treatment, 1 hour time course
# Procedure: LY uptake assays were performed as described previously (Dulic et al., Methods Enzymol. 194:697-710 (1991)) using LY obtained from Sigma (St. Louis, Mo.). […] Cells were then exposed to LY and aliquots were removed at 15 minute intervals. Endocytosis was stopped by the addition of sodium azide/succinate and the percentage of cells with vacuolar LY staining was determined by fluorescence microscopy.
# Pkh kinases are also important for endocytosis in yeast. […] LY binds to the plasma membrane and is transported to the vacuole (yeast lysosomal homolog) in PKH-dependent fashion.
# [5] = test system: C. albicans cells; test: Propidium iodide uptake; assay type: cell-based, Candida albicans; conditions: KP-372-1 at MIC, 2 hours
# Procedure: as §2
# A hallmark phenotype of mutations and drugs that interfere with CWI signaling is that their effects can be suppressed by the addition of osmotic support such as 1M soribitol to the culture medium. By equalizing the osmotic gradient across the plasma membrane, cell integrity is less dependent upon an intact cell wall.
# [6] = test system: S. cerevisiae pkh and ypk mutants; test: Disk diffusion assay, S. cerevisiae mutants; assay type: cell-based
# Procedure: (§3) Plates were incubated at 30° C. for 3 days prior to photography.
# as §1
# Heterozygous diploid yeast mutants lacking one allele of the gene encoding a putative drug target are frequently hypersensitive to the effects of that drug. This is called drug-induced haploinsufficiency. Similarly, if a drug targets the products of two redundant genes, then deletion of one of those genes in a haploid yeast strain will hypersensitize the strain to that drug. […] Pkh1/2 phosphorylates two other AGC protein kinases involved in yeast cell wall integrity, Ypk1&2.
# [7] = test system: C. albicans; test: Checkerboard interaction assay (FIC); assay type: cell-based, Candida albicans
# Procedure: This assay allows one to compare the activity of a molecule alone and in combination with another molecule by generating a fractional inhibitory concentration (FIC). FIC for two drugs (A & B) is calculated as follows: […]. FIC values less than 0.5 are considered synergistic; between 0.5 and 1 are additive; between 1-2 are indifferent; and above 2 are antagonistic. […] Therefore, KP-372-1 is not synergistic with either agent.
# [8] = test system: C. neoformans PKH2-01 and PKH2-02 deletion mutants; test: Disk diffusion assay, C. neoformans mutants; assay type: cell-based, Cryptococcus neoformans; conditions: 30° C.
# Procedure: as §3, §1
# [9] = test system: human protein kinases; conditions: large panel of human protein kinases; cited from earlier work
compound,measurement,setting,value
O=C1c2ccccc2-c2nc3nnnn3nc21.O=C1c2ccccc2-c2nn3nnnc3nc21 [KP-372-1],antifungal activity (in words),[1],highly active
same,number of peripheral eisosomes,[2],dramatically decreased
same,Rlm1-lacZ reporter activity induced by Calcofluor white,[3],completely abolished reporter activity
same,Lucifer yellow uptake (vacuolar localization),[4],uptake is inhibited at early time points
same,cells stained by propidium iodide relative to YPD,[5]; 1M sorbitol-supplemented YPD,five-fold fewer cells were stained
same,percentage of cells stained by propidium iodide,"[5]; 37° C., YPD",36%
same,zone of inhibition versus wild type,"[6]; S. cerevisiae pkh2D mutant, compared with wild type or pkh1D",larger zone of inhibition
same,sensitivity versus wild type,[6]; S. cerevisiae ypk1D and ypk2D mutants,as sensitive to KP-372-1 as wild type
same,FIC (fractional inhibitory concentration),[7]; combination with caspofungin,0.5
same,FIC (fractional inhibitory concentration),[7]; combination with fluconazole,1.0
same,sensitivity versus wild type,[8]; C. neoformans PKH2-01 mutant,slightly more sensitive
same,sensitivity versus wild type,[8]; C. neoformans PKH2-02 mutant,significantly more sensitive
same,selectivity for a limited number of human kinases,[9],at least 10 fold
